This is an account of results in patent publication US9187471B2, “Pyrido [4,3-b] indole and pyrido [3,4-b] indole derivatives and methods of use” (Medivation Technologies, Inc., priority 2010, dated 2015).

Assay [1] addresses T1, rat adrenergic α1A receptor (Rattus norvegicus, UniProt P43140).
T1 construct: rat adrenergic α1A receptor obtained from Wistar Rat submaxillary glands; from tissue; host or cells: Wistar rat submaxillary glands
T1 sequence (P43140 1-466): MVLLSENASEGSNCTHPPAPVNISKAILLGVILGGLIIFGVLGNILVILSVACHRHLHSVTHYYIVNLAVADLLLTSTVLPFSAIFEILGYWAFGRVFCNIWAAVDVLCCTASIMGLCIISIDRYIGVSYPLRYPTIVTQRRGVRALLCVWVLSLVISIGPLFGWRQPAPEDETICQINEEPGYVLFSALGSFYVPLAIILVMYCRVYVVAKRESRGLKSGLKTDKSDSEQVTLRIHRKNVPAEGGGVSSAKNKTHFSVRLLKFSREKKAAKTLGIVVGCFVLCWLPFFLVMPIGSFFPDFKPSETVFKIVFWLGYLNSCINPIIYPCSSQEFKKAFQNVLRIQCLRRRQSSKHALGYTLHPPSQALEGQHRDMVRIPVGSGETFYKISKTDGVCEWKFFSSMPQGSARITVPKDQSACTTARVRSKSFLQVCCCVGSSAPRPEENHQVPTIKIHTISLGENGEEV
Description: Adrenergic α1A radioligand binding ([3H]Prazosin). The conditions noted are these: read-out: Adrenergic (0.1 μM) a1A, percent inhibition of specific binding; compound at 0.1 μM; 0.25 nM [3H]Prazosin. The procedure: To evaluate in radioligand binding assays the activity of compounds of the invention, rat adrenergic α1A receptor obtained from Wistar Rat submaxillary glands (Michel, A. et al, Br. J. Pharmacol. 98:883, 1989) in a modified Tris-HCl buffer (50 mM Tris-HCl buffer, pH 7.4, 0.5 mM EDTA) was used. Compounds of the invention were incubated with 0.25 nM [^3H]Prazosin for 60 min at 25° C. Non-specific binding was estimated in the presence of 10 μM phentolamine Receptor proteins were filtered and washed, the filters were then counted to determine [^3H]Prazosin specifically bound. […] Compounds of the invention were tested in this biochemical assay and percent inhibition of specific binding was determined.

In assay [2] the target is T2, human recombinant serotonin (5-Hydroxytryptamine) 5-HT7 receptor (Homo sapiens, UniProt P34969).
T2 construct: expressed in transfected cells; host or cells: CHO
Kind of assay: Serotonin 5-HT7 radioligand binding ([3H]LSD). The settings on record: compound at 0.1 μM; read-out: Inhibition of ligand binding, Serotonin 5-HT7 (percent inhibition of specific binding). Here is the method: Lysergic acid diethylamide (LSD) for 120 min. at 25° C. […] Receptor proteins were filtered and washed, the filters were then counted to determine [^3H]LSD specifically bound.

Assay [3] deals with T3, human recombinant adrenergic α2C receptor (Homo sapiens, UniProt P18825).
T3 construct: expressed in transfected cells; host or cells: insect Sf9 cells
T3 sequence (P18825 1-462): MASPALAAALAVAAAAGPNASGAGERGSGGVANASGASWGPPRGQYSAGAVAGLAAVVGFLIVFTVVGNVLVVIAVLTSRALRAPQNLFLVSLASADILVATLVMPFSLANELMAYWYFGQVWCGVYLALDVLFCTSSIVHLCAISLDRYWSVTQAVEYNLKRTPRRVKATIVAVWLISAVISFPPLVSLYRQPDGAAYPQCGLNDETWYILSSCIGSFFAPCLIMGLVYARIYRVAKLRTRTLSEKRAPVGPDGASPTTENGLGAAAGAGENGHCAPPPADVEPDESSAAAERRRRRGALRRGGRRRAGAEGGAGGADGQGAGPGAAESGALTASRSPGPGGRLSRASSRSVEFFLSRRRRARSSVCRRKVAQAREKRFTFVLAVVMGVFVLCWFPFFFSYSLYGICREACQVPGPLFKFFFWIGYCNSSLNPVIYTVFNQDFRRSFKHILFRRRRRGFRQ
Kind of assay: Adrenergic α2C radioligand binding ([3H]MK-912). The settings on record: read-out: Adrenergic (0.1 μM) a2C, percent inhibition of specific binding; compound at 0.1 μM; 1 nM [3H]MK-912. Here is the method:
To evaluate in radioligand binding assays the activity of compounds of the invention, human recombinant adrenergic α2C receptor expressed in insect Sf9 cells (Uhlen, S. et al, J. Pharmacol. Exp. Ther. 271:1558, 1994) in a modified Tris-HCl buffer (50 mM Tris-HCl, pH 7.4, 12.5 mM MgCl2, 2 mM EDTA) was used. Compounds of the invention were incubated with 1 nM [^3H]MK-912 for 60 min at 25° C. Non-specific binding was estimated in the presence of 10 μM WB-4101. Receptor proteins were filtered and washed, the filters were then counted to determine [^3H]MK-912 specifically bound. […] Compounds of the invention were tested in this biochemical assay and percent inhibition of specific binding was determined.

Assay [4] concerns the target T4, human recombinant dopamine D2L receptor (Homo sapiens, UniProt P14416).
T4 construct: expressed in transfected cells; host or cells: CHO
Description: Dopamine D2L radioligand binding ([3H]Spiperone). The conditions noted are these: read-out: Dopamine D2L (1 μM), percent inhibition of specific binding; compound at 1 μM; 0.16 nM [3H]Spiperone. Here is the method:
Non-specific binding was estimated in the presence of 10 μM Haloperidol. Receptor proteins were filtered and washed, the filters were then counted to determine [^3H]Spiperone specifically bound.

Assay [5] addresses T5, human recombinant serotonin (5-Hydroxytryptamine) 5-HT6 receptor (Homo sapiens, UniProt P50406).
T5 construct: expressed in transfected cells; host or cells: HeLa
Description: Serotonin 5-HT6 radioligand binding ([3H]LSD). The settings on record: compound at 0.1 μM; read-out: Inhibition of ligand binding, Serotonin 5-HT6 (percent inhibition of specific binding). An excerpt:
Receptor proteins were filtered and washed, the filters were then counted to determine [3H]LSD specifically bound.

The target in assay [6] is T6, human recombinant serotonin (5-Hydroxytryptamine) 5-HT2A receptor (Homo sapiens, UniProt P28223).
T6 construct: expressed in transfected cells; host or cells: CHO-K1
Description: Serotonin 5-HT2A radioligand binding ([3H]Ketanserin). The conditions noted are these: compound at 0.1 μM; read-out: Inhibition of ligand binding, Serotonin 5-HT2A (percent inhibition of specific binding). The procedure:
Compounds of the invention were incubated with 0.5 nM [^3H]Ketanserin for 60 min at 25° C. Non-specific binding was estimated in the presence of 1 μM Mianserin. Receptor proteins were filtered and washed, the filters were then counted to determine [^3H]Ketanserin specifically bound.

Assay [7] addresses T7, human recombinant serotonin (5-Hydroxytryptamine) 5-HT5A receptor (Homo sapiens, UniProt P47898).
T7 construct: expressed in transfected cells; host or cells: CHO-K1
Kind of assay: Serotonin 5-HT5A radioligand binding ([3H]LSD). The settings on record: compound at 0.1 μM; read-out: Inhibition of ligand binding, Serotonin 5-HT5A (percent inhibition of specific binding). Here is the method:
Compounds of the invention were incubated with 1.7 nM [^3H]Lysergic acid diethylamide (LSD) for 60 min at 37° C. […] Receptor proteins were filtered and washed, the filters were counted to determine [^3H]LSD specifically bound.

T2 sequence (P34969 whole entry): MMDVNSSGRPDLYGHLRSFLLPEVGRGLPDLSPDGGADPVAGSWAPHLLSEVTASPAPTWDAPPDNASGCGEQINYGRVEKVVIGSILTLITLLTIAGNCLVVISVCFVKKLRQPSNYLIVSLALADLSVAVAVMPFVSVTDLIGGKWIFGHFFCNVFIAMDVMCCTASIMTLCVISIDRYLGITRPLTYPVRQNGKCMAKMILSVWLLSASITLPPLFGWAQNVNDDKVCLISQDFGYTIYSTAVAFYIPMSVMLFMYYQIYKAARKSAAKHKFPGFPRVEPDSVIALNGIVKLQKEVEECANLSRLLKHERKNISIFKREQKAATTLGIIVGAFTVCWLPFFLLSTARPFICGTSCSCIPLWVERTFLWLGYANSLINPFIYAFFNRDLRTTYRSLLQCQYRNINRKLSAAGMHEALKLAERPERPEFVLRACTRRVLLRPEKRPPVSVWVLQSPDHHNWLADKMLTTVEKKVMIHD
T6 sequence (P28223 whole entry): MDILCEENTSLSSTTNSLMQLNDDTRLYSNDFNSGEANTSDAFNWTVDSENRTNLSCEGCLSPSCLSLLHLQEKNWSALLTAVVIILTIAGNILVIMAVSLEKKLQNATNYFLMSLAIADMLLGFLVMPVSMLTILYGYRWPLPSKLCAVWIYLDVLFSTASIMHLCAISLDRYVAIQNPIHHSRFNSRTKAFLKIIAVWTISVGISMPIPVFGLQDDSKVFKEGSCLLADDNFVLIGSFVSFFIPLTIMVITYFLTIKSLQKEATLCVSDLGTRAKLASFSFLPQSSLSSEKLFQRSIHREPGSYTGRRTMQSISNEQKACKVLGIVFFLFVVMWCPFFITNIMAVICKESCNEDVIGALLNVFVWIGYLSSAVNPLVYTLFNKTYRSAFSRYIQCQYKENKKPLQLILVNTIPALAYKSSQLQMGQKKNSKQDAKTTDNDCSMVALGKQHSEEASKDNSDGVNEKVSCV
T4 sequence (P14416 whole entry): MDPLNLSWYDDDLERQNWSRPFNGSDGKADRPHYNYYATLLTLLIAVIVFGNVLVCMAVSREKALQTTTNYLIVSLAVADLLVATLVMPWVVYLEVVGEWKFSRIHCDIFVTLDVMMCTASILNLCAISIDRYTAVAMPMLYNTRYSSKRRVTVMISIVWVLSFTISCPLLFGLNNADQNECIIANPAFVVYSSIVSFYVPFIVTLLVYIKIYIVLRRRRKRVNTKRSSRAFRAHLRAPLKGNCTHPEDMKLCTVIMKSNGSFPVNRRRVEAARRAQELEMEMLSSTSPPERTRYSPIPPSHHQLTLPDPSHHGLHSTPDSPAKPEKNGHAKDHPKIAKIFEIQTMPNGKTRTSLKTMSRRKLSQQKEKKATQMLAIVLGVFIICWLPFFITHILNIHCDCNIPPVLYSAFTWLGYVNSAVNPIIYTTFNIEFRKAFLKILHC
T7 sequence (P47898 whole entry): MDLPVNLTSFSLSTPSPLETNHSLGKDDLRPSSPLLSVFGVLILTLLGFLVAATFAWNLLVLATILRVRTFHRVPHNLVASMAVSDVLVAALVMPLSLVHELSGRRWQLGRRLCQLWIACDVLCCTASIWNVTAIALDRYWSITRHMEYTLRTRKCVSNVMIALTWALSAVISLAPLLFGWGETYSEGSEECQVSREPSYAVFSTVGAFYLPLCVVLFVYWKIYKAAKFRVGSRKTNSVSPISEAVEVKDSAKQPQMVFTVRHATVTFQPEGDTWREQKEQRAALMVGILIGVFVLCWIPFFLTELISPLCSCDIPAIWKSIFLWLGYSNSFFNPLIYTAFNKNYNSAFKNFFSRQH
T5 sequence (P50406 whole entry): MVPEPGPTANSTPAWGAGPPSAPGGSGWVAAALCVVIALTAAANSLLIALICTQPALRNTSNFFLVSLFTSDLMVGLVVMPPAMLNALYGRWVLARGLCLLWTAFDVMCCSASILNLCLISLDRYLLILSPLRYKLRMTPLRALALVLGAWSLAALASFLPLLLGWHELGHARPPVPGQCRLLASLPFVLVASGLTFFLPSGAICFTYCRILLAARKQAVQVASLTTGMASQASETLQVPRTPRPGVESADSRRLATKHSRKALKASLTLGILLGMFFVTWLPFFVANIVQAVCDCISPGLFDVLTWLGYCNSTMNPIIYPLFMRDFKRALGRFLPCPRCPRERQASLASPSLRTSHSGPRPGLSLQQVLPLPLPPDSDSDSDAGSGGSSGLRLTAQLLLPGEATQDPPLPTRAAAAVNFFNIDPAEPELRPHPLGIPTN

For the molecule `Cc1ccc2c(c1)c1c(n2-c2cscc2-c2cnn(C)c2)CCN(C)C1` [Compound 30], the inhibition at 0.1 µM in assay [1] was determined as 62%; in assay [2] it was 94%; in assay [3], 10%; in assay [5] it was 33%; in assay [6] it was 92%; in assay [7], 77%. The inhibition at 1 µM in assay [4] stood at 4%.

For `Cc1ccc2c(c1)c1c(n2-c2ccccc2-c2cnc(N(C)C)nc2)CCN(C)C1` [Compound 31], the inhibition at 0.1 µM is 51% in assay [1]; -2% in assay [2]; 12% in assay [3]; 20% in assay [5]; 27% in assay [6]; 8% in assay [7]. Also, the inhibition at 1 µM in assay [4] was 12%.

With `Cc1ccc2c(c1)c1c(n2-c2ccccc2-c2ccnn2C)CCN(C)C1` [Compound 32], the inhibition at 0.1 µM in assay [1] was 27%; in assay [2] it was 55%; in assay [3], 20%; in assay [5], 5%; in assay [6], 59%; in assay [7], 26%. Besides, the inhibition at 1 µM in assay [4] is 10%.

`Cc1ccc2c(c1)c1c(n2-c2cscc2-c2ccc3c(ccn3C)c2)CCN(C)C1` [Compound 33]: the inhibition at 0.1 µM in assay [1] amounted to 57%; in assay [2], 94%; in assay [3], 87%; in assay [5], 60%; in assay [6], 39%; in assay [7], 93%. In addition, the inhibition at 1 µM in assay [4] worked out at 19%.

With `Cc1ccc2c(c1)c1c(n2-c2cscc2-c2cncc3ccccc23)CCN(C)C1` [Compound 34], the inhibition at 0.1 µM amounted to 4% in assay [1]; 43% in assay [2]; 5% in assay [3]; 11% in assay [5]; 57% in assay [6]; 56% in assay [7]. The inhibition at 1 µM in assay [4] was found to be 31%.

For `Cc1ccc2c(c1)c1c(n2-c2cscc2-c2ccc(F)nc2)CCN(C)C1` [Compound 35], the inhibition at 0.1 µM in assay [1] is 78%; in assay [2], 93%; in assay [3], 47%; in assay [5] it was 21%; in assay [6], 82%; in assay [7] it was 66%. Further, the inhibition at 1 µM in assay [4] stood at 17%.

As for `Cc1csc(-c2ccccc2-n2c3c(c4cc(C)ccc42)CN(C)CC3)c1` [Compound 36], the inhibition at 0.1 µM in assay [1] was -6%; in assay [2], 51%; in assay [3] it was 67%; in assay [5], 13%; in assay [6], 80%; in assay [7] it was 50%. In assay [4], the inhibition at 1 µM is 22%.

As for `COc1ccc(-c2cscc2-n2c3c(c4cc(C)ccc42)CN(C)CC3)cc1` [Compound 37], the inhibition at 0.1 µM was determined as 82% in assay [1]; 100% in assay [2]; 72% in assay [3]; 24% in assay [5]; 59% in assay [6]; 94% in assay [7]. For the same molecule, in assay [4], the inhibition at 1 µM was 18%.

Consider `Cc1ccc2c(c1)c1c(n2-c2ccc3cnccc3c2)CCN(C)C1` [Compound 38], for which the inhibition at 0.1 µM in assay [1] was determined as 36%; in assay [2], 33%; in assay [3], 11%; in assay [5], 73%; in assay [6] it was 84%; in assay [7], 29%. Further, the inhibition at 1 µM in assay [4] stood at 53%.

Turning to `Cc1ccc2c(c1)c1c(n2-c2cscc2-c2sccc2C)CCN(C)C1` [Compound 39], the inhibition at 0.1 µM in assay [1] is 31%; in assay [2], 97%; in assay [3] it was 50%; in assay [5], 65%; in assay [6], 84%; in assay [7] it was 83%. In assay [4], the inhibition at 1 µM is 54%.

`Cc1ccc2c(c1)c1c(n2-c2cscc2-c2cnc(N(C)C)nc2)CCN(C)C1` [Compound 40]: the inhibition at 0.1 µM in assay [1] is 43%; in assay [2], 49%; in assay [3], -17%; in assay [5], 19%; in assay [6], 31%; in assay [7], 76%. In assay [4], the inhibition at 1 µM worked out at 7%.

Regarding `Cc1ccc2c(c1)c1c(n2-c2cscc2-c2cccc3[nH]ncc23)CCN(C)C1` [Compound 41], the inhibition at 0.1 µM stood at 59% in assay [1]; 96% in assay [2]; 55% in assay [3]; 36% in assay [5]; 84% in assay [6]; 94% in assay [7]. Further, the inhibition at 1 µM in assay [4] is 24%.

Consider `Cc1ccc2c(c1)c1c(n2-c2cccc(-c3cnc(N(C)C)nc3)c2)CCN(C)C1` [Compound 42, 5-(3-(2,8-dimethyl-3,4-dihydro-1H-pyrido[4,3-b]indol-5(2H)-yl)phenyl)-N,N-dimethylpyrimidin-2-amine], for which the inhibition at 0.1 µM in assay [1] is 9%; in assay [2], 31%; in assay [3] it was -11%; in assay [5] it was 17%; in assay [6], 62%; in assay [7] it was 11%. Further, the inhibition at 1 µM in assay [4] was 17%.
